Test [1] deals with T1, LCMV NP-exo (Lymphocytic choriomeningitis virus (strain Armstrong), UniProt P09992).
T1 construct: gene N

Test [2] concerns the target T2, MOPV NP-exo (Mammarenavirus mopeiaense, UniProt P19239).
T2 construct: gene N
Conditions: 5 mM MnCl2, pH 8.0, 310 K, 5 min, 0.25 µM enzyme, 1.5 µM HP4 RNA; Mn2+-dependent; acts by metal-ion chelation.

This is an account of results in publication PMC9252148 (IUCrJ, 2022).

T2 sequence (P19239 365-570 limits assumed): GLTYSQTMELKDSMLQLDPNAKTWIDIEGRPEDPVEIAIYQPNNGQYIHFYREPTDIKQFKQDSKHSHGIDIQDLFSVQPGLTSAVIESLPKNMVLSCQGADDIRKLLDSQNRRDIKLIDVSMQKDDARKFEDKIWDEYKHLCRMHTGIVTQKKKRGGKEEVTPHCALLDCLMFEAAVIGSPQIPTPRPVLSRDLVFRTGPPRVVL
T1 sequence (P09992 357-558 limits assumed): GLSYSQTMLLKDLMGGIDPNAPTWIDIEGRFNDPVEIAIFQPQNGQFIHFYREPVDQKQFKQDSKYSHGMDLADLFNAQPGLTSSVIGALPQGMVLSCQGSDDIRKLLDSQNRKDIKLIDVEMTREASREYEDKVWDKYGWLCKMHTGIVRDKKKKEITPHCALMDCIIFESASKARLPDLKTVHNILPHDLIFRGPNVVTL

Consider alendronate, for which the IC50 was 68.6 ± 4.2 µM in test [1] and 65.9 ± 1.7 µM in test [2].
